From PMC11052784 (European Journal of Drug Metabolism and Pharmacokinetics, 2024)
Read-outs that look alike come from different tables or passages of the source.

Tests used:
[1] = system: pregnane X receptor (PXR) pathway; experiment: Induction via the pregnane X receptor pathway; type: in vitro ADME; details: data on file
CYP3A [2] = experiment: Oral contraceptive DDI study; type: in vivo, human
Safety = type: in vivo, human; details: coadministered with midazolam, caffeine, efavirenz, omeprazole or oral contraceptives; healthy adult participants
CYP2B6 = details: after multiple doses of abrocitinib 200 mg QD
[3] = after administration as tablet; cited from earlier work
CYP2C19 [4] = details: cited from earlier work
CYP3A [5] = experiment: Midazolam DDI study
CYP2C19 [6] = molecular target: T1, CYP2C19 (Homo sapiens, UniProt P33261); type: in vitro ADME; details: HLM
CYP3A4/5 = experiment: Time-dependent inhibition; type: in vitro ADME, human; details: HLM; for TDI of CYP3A after 30-min preincubation: incubation concentration ≥ 99.5 µM
CYP1A2/2B6/2C19/3A = experiment: Reversible inhibition in human liver microsomes; type: in vitro ADME; details: HLM
CYP2C19 [7] = molecular target: T1, CYP2C19
CYP1A2 = details: with abrocitinib 200 mg QD
[8] = after multiple doses of abrocitinib 200 mg QD
[9] = multiple doses of abrocitinib 200 mg QD, Day 7 vs midazolam alone
[10] = with abrocitinib 200 mg QD on Day 2 vs midazolam alone
[11] = abrocitinib 200 mg QD with omeprazole 10 mg single dose
[12] = with multiple doses of abrocitinib vs LN alone

T1 sequence (P33261 whole entry): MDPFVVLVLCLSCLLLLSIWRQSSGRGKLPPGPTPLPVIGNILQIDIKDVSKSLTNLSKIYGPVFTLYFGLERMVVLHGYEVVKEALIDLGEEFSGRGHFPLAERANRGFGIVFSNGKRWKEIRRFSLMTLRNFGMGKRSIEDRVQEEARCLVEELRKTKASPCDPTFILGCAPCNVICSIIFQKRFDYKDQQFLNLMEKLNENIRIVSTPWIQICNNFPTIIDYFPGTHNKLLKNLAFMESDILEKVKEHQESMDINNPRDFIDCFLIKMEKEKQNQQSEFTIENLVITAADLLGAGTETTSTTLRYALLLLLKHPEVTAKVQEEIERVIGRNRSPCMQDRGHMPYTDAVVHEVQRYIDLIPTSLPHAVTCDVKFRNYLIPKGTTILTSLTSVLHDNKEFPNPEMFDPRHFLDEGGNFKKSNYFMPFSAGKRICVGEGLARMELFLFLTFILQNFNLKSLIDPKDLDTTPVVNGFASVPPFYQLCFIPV

## CCCS(=O)(=O)N[C@H]1C[C@@H](N(C)c2ncnc3[nH]ccc23)C1 [Abrocitinib, N-{cis-3-[Methyl(7H-pyrrolo[2,3-d]pyrimidin-4-yl)amino]cyclobutyl}propane-1-sulfo namide]
[1]
  Induction via the PXR pathway: weak signal
CYP3A [2]; [8]
  Effect of abrocitinib on the pharmacokinetics of OCs: lack of effect
Safety
  Overall safety and tolerability: generally safe and well tolerated
CYP2B6
  Effect of abrocitinib on the pharmacokinetics of efavirenz: lack of effect
[3]
  Median Tmax of abrocitinib: ≤ 1 h
CYP2C19 [4]
  Share of abrocitinib metabolism by CYP2C19: approximately 53%
CYP3A [5]; [8]
  Effect of abrocitinib on the pharmacokinetics of midazolam: lack of effect

## Cc1ncc2n1-c1ccc(Cl)cc1C(c1ccccc1F)=NC2 [Midazolam, midazolam]
CYP3A [5]; [9]
  Decrease of adjusted geometric mean AUCinf of midazolam: approximately 7.7%
  Decrease of adjusted geometric mean Cmax of midazolam: ~6.5%
CYP3A [5]; [10]
  Decrease of adjusted geometric mean AUCinf of midazolam: approximately 15.7%
  Decrease of adjusted geometric mean Cmax of midazolam: ~13.7%

## CN(c1ncnc2[nH]ccc12)[C@H]1C[C@@H](NS(=O)(=O)CCCO)C1 [M1]
CYP2C19 [6]
  TDI of CYP2C19 in the absence of NADPH: weak TDI
  TDI of CYP2C19 in the presence of NADPH: weak TDIs
CYP3A4/5
  TDI of CYP3A in the absence of NADPH: weak TDI
  TDI of CYP3A after 30-min preincubation: weak TDI
  TDI of CYP3A in the presence of NADPH: weak TDIs
CYP1A2/2B6/2C19/3A
  Reversible inhibition of CYP1A2/2B6/2C19/3A: no reversible inhibition

## COc1ccc2[nH]c([S+]([O-])Cc3ncc(C)c(OC)c3C)nc2c1 (centres unmarked) [Omeprazole, omeprazole]
CYP2C19 [7]; [11]
  Increase of omeprazole AUCinf: approximately 2.9 fold
  Increase of omeprazole Cmax: ~2.3 fold
CYP2C19 [7]; with multiple doses of abrocitinib 200 mg QD
  Increase of omeprazole Cmax: ~134%

## C#C[C@]1(O)CC[C@H]2[C@@H]3CCC4=CC(=O)CC[C@@H]4[C@H]3CC[C@@]21CC [Levonorgestrel, levonorgestrel]
CYP3A [2]; [12]
  Change of adjusted geometric mean AUClast: did not change
  Decrease of adjusted geometric mean Cmax: approximately 14%

## CC(O)CS(=O)(=O)N[C@H]1C[C@@H](N(C)c2ncnc3[nH]ccc23)C1 (some centres unmarked) [M2]
CYP2C19 [6]
  TDI of CYP2C19 in the absence of NADPH: weak TDI
  TDI of CYP2C19 in the presence of NADPH: weak TDIs
CYP3A4/5
  TDI of CYP3A in the absence of NADPH: weak TDI
  TDI of CYP3A after 30-min preincubation: weak TDI
  TDI of CYP3A in the presence of NADPH: weak TDIs
CYP1A2/2B6/2C19/3A
  Reversible inhibition of CYP1A2/2B6/2C19/3A: no reversible inhibition

## Cn1c(=O)c2c(ncn2C)n(C)c1=O [Caffeine, caffeine]
CYP1A2
  Increase of caffeine AUCinf: 1.4 fold
